Assay results as given in ChEMBL document CHEMBL1914432, “Discovery of highly potent small molecule Hepatitis C Virus entry inhibitors” (Bioorg Med Chem Lett, 2011).
The source made the active and inactive calls. The rule behind the calls is not given here.

Tests used:
Hepatitis C virus = test: Antiviral activity against chronic Hepatitis C virus type 2a infected in human HuH7 cells by Renilla luciferase reporter gene assay; format: functional, organism-based, Hepacivirus hominis; conditions: genotype 2a, Huh-7
Plasma [1] = test: Metabolic stability in rat plasma; format: ADME, cell-free
[2] = Clearance in rat at 2 mg/kg, iv and 20 mg/kg, po; format: ADME, organism-based; conditions: in vivo
[3] = Half life in rat at 2 mg/kg, iv and 20 mg/kg, po; format: ADME, organism-based; conditions: in vivo
[4] = biological target: T1, Scavenger receptor class B member 1 (Homo sapiens) (UniProt Q8WTV0); test: Inhibition of human SRB1-mediated Hepatitis C virus genotype 2a entry into human 293T cells by immunoblotting; format: cell-based
T1 sequence (whole entry): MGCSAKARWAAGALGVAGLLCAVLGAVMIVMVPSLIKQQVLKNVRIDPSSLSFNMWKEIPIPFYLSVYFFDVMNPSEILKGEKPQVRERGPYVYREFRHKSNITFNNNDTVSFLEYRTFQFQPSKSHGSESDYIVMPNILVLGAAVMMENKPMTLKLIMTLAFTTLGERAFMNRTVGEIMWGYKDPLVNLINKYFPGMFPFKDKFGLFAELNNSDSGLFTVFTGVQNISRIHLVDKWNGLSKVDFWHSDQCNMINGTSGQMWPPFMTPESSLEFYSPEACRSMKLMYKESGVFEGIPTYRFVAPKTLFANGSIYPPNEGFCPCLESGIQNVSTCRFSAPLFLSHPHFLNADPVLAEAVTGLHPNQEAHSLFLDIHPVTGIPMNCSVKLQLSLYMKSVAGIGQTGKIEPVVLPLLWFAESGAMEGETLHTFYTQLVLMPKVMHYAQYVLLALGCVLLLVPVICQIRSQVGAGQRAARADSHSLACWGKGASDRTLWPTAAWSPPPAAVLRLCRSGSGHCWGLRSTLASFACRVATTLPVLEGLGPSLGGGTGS

[5] = AUC (all) in rat at 2 mg/kg, iv and 20 mg/kg, po; format: ADME, organism-based; conditions: plasma
[6] = Oral bioavailability in rat at 20 mg/kg; format: ADME, organism-based; conditions: in vivo
[7] = Apparent volume of distribution in rat at 2 mg/kg, iv and 20 mg/kg, po; format: ADME, organism-based; conditions: in vivo, read-out: Vz
[8] = Cmax in rat at 2 mg/kg, iv and 20 mg/kg, po; format: ADME, organism-based; conditions: in vivo
Plasma [9] = test: Drug metabolism in rat plasma assessed as plasma esterase-mediated formation of 9-(3-(4,6-dimethoxypyrimidin-2-ylamino)propyl-2,3,4,9-tetrahydro-1H-carbazole-6-carboxylic acid by LC-MS analysis; format: ADME, cell-free

| SMILES | IC50 (Hepatitis C virus) | other results |
| --- | --- | --- |
| COC(=O)c1ccc2c(c1)c1c(n2CC2CCCN(c3nc(OC)cc(OC)n3)C2)CCCC1 (stereo not given) | 50 nM |  |
| COC(=O)c1ccc2c(c1)c1c(n2CCCN2CCCC(C(=O)N(C)C)C2)CCCC1 (stereo not given) | 50 nM |  |
| COC(=O)c1ccc2c(c1)c1c(n2CCS(=O)(=O)N(C)C)CCCC1 | > 1000 nM |  |
| COC(=O)c1ccc2c(c1)c1c(n2CCCN2CCNC(=O)C2)CCCC1 | 65 nM |  |
| CCN(CC)C(=O)c1ccc2c(c1)c1c(n2CCCNc2nc(OC)cc(OC)n2)CCCC1 | 50 nM | Stability (Plasma [1]): Stable |
| COC(=O)c1ccc2c(c1)c1c(n2CCCNc2ncccn2)CCCC1 | 50 nM |  |
| COC(=O)c1ccc2c(c1)c1c(n2CCCNc2nc(C)cc(C(=O)OC)n2)CCCC1 | 30 nM |  |
| COc1cc(OC)nc(NCCCn2c3c(c4cc(C(=O)NC(C)C)ccc42)CCCC3)n1 | 150 nM | Stability (Plasma [1]): Stable |
| COC(=O)c1ccc2c(c1)c1c(n2CCCNS(=O)(=O)C(C)C)CCCC1 | 50 nM |  |
| COC(=O)c1ccc2c(c1)c1c(n2CCCC(=O)N(C)C)CCCC1 | 300 nM |  |
| COc1cc(OC)nc(NCCCn2c3c(c4cc(C(=O)N(C)C)ccc42)CCCC3)n1 | 30 nM | clearance [2]: 45 mL/min/kg; half-life [3]: 33 min; inhibition [4]: Active; AUC [5]: 41 ng·h/mL; bioavailability [6]: 0.6%; Stability (Plasma [1]): Stable; Vd [7]: 2.05 L/kg; Cmax [8]: 51 ng/mL |
| COC(=O)c1ccc2c(c1)c1c(n2CCCN2CCOCC2)CCCC1 | 150 nM |  |
| COC(=O)c1ccc2c(c1)c1c(n2CCCS(=O)(=O)N2CCCCC2)CCCC1 | 30 nM |  |
| COC(=O)c1ccc2c(c1)c1c(n2CC2CCN(c3nc(OC)cc(OC)n3)CC2)CCCC1 | 15 nM |  |
| COC(=O)c1ccc2c(c1)c1c(n2CCCn2ccnc2)CCCC1 | 170 nM |  |
| COC(=O)c1ccc2c(c1)c1c(n2C2CCN(c3nc(OC)cc(OC)n3)CC2)CCCC1 | 300 nM |  |
| COC(=O)c1ccc2c(c1)c1c(n2CCCS(=O)(=O)N2CCC2)CCCC1 | 15 nM |  |
| COC(=O)c1ccc2c(c1)c1c(n2CCCN2C[C@@H](C)O[C@@H](C)C2)CCCC1 | 25 nM |  |
| COC(=O)c1ccc2c(c1)c1c(n2CCCS(=O)(=O)N2C[C@@H](C)O[C@@H](C)C2)CCCC1 | 150 nM |  |
| COC(=O)c1ccc2c(c1)c1c(n2CCCNc2nc(OC)nc(OC)n2)CCCC1 | 15 nM |  |
| COC(=O)c1ccc2c(c1)c1c(n2CCCS(=O)(=O)c2ccccc2)CCCC1 | 50 nM |  |
| COC(=O)c1ccc2c(c1)c1c(n2CCCN2C[C@@H](C)N[C@@H](C)C2)CCCC1 | 40 nM |  |
| COC(=O)c1ccc2c(c1)c1c(n2CCCNc2cc(C)nc(Cl)n2)CCCC1 | 30 nM |  |
| COC(=O)c1ccc2c(c1)c1c(n2CCCS(=O)(=O)N2CCOCC2)CCCC1 | 15 nM |  |
| COc1cc(OC)nc(NCCCn2c3c(c4cc(C(=O)O)ccc42)CCCC3)n1 |  | inhibition [4]: inactive; Activity (Hepatitis C virus; Hepacivirus hominis): inactive |
| COC(=O)c1ccc2c(c1)c1c(n2CCCCNc2nc(OC)cc(OC)n2)CCCC1 | 30 nM |  |
| COC(=O)c1ccc2c(c1)c1c(n2CCCn2cnc3ncncc32)CCCC1 | 50 nM |  |
| COC(=O)c1ccc2c(c1)c1c(n2CCCn2cncc2C)CCCC1 | 310 nM |  |

Further compounds by falling IC50 (Hepatitis C virus), results first:

| IC50 (Hepatitis C virus) | SMILES | other results |
| --- | --- | --- |
| 15 nM | COC(=O)c1ccc2c(c1)c1c(n2CCCNS(=O)(=O)c2cc(F)cc(F)c2)CCCC1 |  |
| 15 nM | COC(=O)c1ccc2c(c1)c1c(n2CCCNc2nccc(OC)n2)CCCC1 |  |
| 10 nM | COc1cc(OC)nc(NCCCn2c3c(c4cc(C(=O)OC(C)C)ccc42)CCCC3)n1 | clearance [2]: 71.8 mL/min/kg; half-life [3]: 74.4 min; inhibition [4]: Active; AUC [5]: 896 ng·h/mL; bioavailability [6]: 19%; Stability (Plasma [1]): Stable; Vd [7]: 17.6 L/kg; Cmax [8]: 547 ng/mL |
| 10 nM | CNC(=O)c1ccc2c(c1)c1c(n2CCCNc2nc(OC)cc(OC)n2)CCCC1 | clearance [2]: 58.2 mL/min/kg; half-life [3]: 28.2 min; inhibition [4]: Active; AUC [5]: 45 ng·h/mL; bioavailability [6]: 0.8%; Stability (Plasma [1]): Stable; Vd [7]: 1.33 L/kg; Cmax [8]: 51 ng/mL |
| 5 nM | COC(=O)c1ccc2c(c1)c1c(n2CCc2nc3ccccc3[nH]2)CCCC1 |  |
| 5 nM | COC(=O)c1ccc2c(c1)c1c(n2CCCS(=O)(=O)N(C)C)CCCC1 |  |
| 5 nM | COC(=O)c1ccc2c(c1)c1c(n2CCCOc2nc(C)cc(C(F)(F)F)n2)CCCC1 |  |
| 5 nM | COC(=O)c1ccc2c(c1)c1c(n2CCc2nc3cc(C)c(C)cc3[nH]2)CCCC1 |  |
| 1.5 nM | COC(=O)c1ccc2c(c1)c1c(n2CCCNc2nc(OC)cc(OC)n2)CCCC1 | inhibition [4]: Active; Drug metabolism (Plasma [9]): Active |
| 1.5 nM | COC(=O)c1ccc2c(c1)c1c(n2CCCN(C)c2nc(OC)cc(OC)n2)CCCC1 |  |
| 1.5 nM | CCc1cc(CC)nc(OCCCn2c3c(c4cc(C(=O)OC)ccc42)CCCC3)n1 |  |
| 1.5 nM | COC(=O)c1ccc2c(c1)c1c(n2CCCOc2cc(Cl)nc(C)n2)CCCC1 |  |
| 0.6 nM | COC(=O)c1ccc2c(c1)c1c(n2CCCOc2nc(OC)cc(OC)n2)CCCC1 |  |
